The results in this text go back to patent US11440884B2, “Compounds, salts thereof and methods for treatment of diseases” (ACADIA PHARMACEUTICALS INC., priority 2017, dated 2022).

Chain of 5-HT2A receptor (P28223 whole entry): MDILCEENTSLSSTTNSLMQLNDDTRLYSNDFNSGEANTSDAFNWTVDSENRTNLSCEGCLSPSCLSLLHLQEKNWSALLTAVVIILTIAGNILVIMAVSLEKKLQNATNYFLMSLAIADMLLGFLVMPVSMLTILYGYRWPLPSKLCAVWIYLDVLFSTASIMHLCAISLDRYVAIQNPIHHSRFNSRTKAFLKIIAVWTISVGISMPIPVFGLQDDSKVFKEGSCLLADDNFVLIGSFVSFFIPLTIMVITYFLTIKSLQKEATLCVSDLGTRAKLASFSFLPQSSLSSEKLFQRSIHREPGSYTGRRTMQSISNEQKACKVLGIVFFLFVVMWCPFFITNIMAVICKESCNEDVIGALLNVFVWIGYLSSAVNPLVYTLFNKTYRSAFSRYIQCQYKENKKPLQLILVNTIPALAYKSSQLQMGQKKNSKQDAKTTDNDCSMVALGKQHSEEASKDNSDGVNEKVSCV

The first assay has as its target 5-HT2A receptor (Homo sapiens (Human), UniProt P28223). Briefly: Receptor Selection and Amplification (R-SAT) functional antagonist assay.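 Note: Read-out is β-galactosidase marker gene activity with ONPG substrate, measured after five days of growth in 96-well plates holding the test compound.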
Conditions: not given
In the case of `CC(C)COc1ccc(CC(=O)N(Cc2ccc(C(F)(F)F)cc2F)C2CCN(C)CC2)cc1.O=C(O)C(F)(F)F` [Compound 69], the “5-HT2a pKi” value was found to be 7.7.
With `CN1CCC(N(Cc2ccc(F)cc2F)C(=O)OCc2ccc(OC(C)(C)C)cc2)CC1.O=C(O)C(F)(F)F` [Compound 72], the “5-HT2a pKi” value amounted to 10.0.
Same read-out and setting: the value for `CN1CCC(N(Cc2ccc(F)cc2F)C(=O)OCc2ccc(C(C)(F)F)cc2)CC1.O=C(O)C(F)(F)F` [Compound 73] was 9.4; that for `CC(C)Oc1ccc(COC(=O)N(Cc2ccc(C(F)(F)F)cc2Cl)C2CCN(C)CC2)cc1.O=C(O)C(F)(F)F` [Compound 78] was 7.6.
In the case of `CC(C)Oc1ccc(COC(=O)N(Cc2ccc(F)cc2C(F)(F)F)C2CCN(C)CC2)cc1` [Compound 81], the Ki is 2000 µM.

The assay is the same for the next values; noted with them: R-SAT, transfected NIH3T3 cells; guidance: high affinity pKi≥8.4, moderate affinity pKi≥7.7.
Turning to `Cc1ccc(CN(C(=O)OCc2ccc(OC(C)C)cc2)C2CCN(C)CC2)c(F)c1` [Compound 68, [4-(propan-2-yloxy)phenyl]methyl N-[(2-fluoro-4-methylphenyl)-methyl]-N-(1-methylpiperidin-4-yl)carbamate], the “5-HT2a pKi” value was 7.3.
Regarding `CC(C)Oc1ccc(COC(=O)N(Cc2c(F)cc(Cl)cc2F)C2CCN(C)CC2)cc1` [Compound 74], the “5-HT2a pKi” value is listed as 9.1.
The same measure, in the same setting: the value for `COc1cc(CN(C(=O)OCc2ccc(OC(C)C)cc2)C2CCN(C)CC2)ccc1Cl.O=C(O)C(F)(F)F` [Compound 75] was 6.8; that for `CC(C)Oc1ccc(COC(=O)N(Cc2ccc(C(F)(F)F)cc2F)C2CCN(C)CC2)cc1.O=C(O)C(F)(F)F` [Compound 79] was 8.4; that for `CC(C)Oc1ccc(COC(=O)N(Cc2cc(F)c(F)cc2F)C2CCN(C)CC2)cc1` [Compound 80] was 7.8.
Still for that read-out and setting: the value for `CC(C)COc1ccc(COC(=O)N(Cc2ccc(F)cc2O)C2CCN(C)CC2)cc1` [Compound 82, [4-(2-methylpropoxy)phenyl]methyl N-[(4-fluoro-2-hydroxyphenyl)methyl]-N-(1-methylpiperidin-4-yl)carbamate] was 7.8.

In general, Ki refers to a measure of affinity in units of concentration, obtained from inhibition or displacement. A high value points to weaker binding.
